From patent US12059473B2, “Humanized anti-prostate -specific membrane antigen (PSMA) antibody drug conjugates” (Ambrx, Inc., priority 2018, dated 2024)

How the values were obtained:
[1] = tested on: cell surface PSMA expression; conditions: in vitro; Murga et al. 2015; cited from earlier work
[2] = tested on: C4-2 human carcinoma xenografts; patient derived xenograft (PDX) TM00298 prostate tumors; experiment: Repeat dose and enzalutamide combination efficacy in prostate tumor models; assay type: in vivo, mice; conditions: enzalutamide as a single agent; prostate cancer cells
Method: Anti-tumor efficacy of the anti-PSMA ADCs of the invention in combination with hormone therapy enzalutamide was tested in tumor xenograft model in mice engrafted with prostate cancer cell line. Metastatic castration resistant prostate cancer (mCRPC) relevant cell line, C4-2, was obtained from ATCC and expanded in vitro following ATCC instructions. C4-2 human carcinoma xenografts were grown in male immune-compromised mice with cells implanted subcutaneously. A second model using male immunocompromised mice bearing patient derived xenograft (PDX) TM00298 (Jackson Laboratories, CA) prostate tumors was also studied.
Mice were weighed and measured for tumor volume using an electronic caliper. Individual tumor volume was calculated as length×width×width/2. Mice with vascularized tumors (determined by appearance) averaging a volume of 500 mm^3 were randomized into treatment groups and were dosed intravenously per individual body weight. Anti-PSMA ADCs were administered intravenously at 0.5, 1, and 3 mg/kg weekly for 4 weeks in the C4-2 model and at 1 and 3 mg/kg weekly for 4 weeks in the PDX model. In both prostate models, enzalutamide was administered orally daily at 10 mg/kg, for 28 days. In both prostate models, one group of mice were administered a combination therapy of 1 mg/kg anti-PSMA ADC plus 10 mg/kg enzalutamide, FIGS. 7 and 8. […]

CNC(=O)c1ccc(N2C(=S)N(c3ccc(C#N)c(C(F)(F)F)c3)C(=O)C2(C)C)cc1F [enzalutamide]
increase of cell surface PSMA expression [1]: approximately 3 fold | level of cell surface PSMA [2]: increased the level of cell surface PSMA in prostate cancer cells
